Measured values as given in US6660473B1, “C-terminal protein tagging” (Phylos, Inc., priority 1999, dated 2003).

What was measured:
[1] = molecular target: ribosomal peptidyl transferase; conditions: ribosomal peptidyl transferase site; cited from earlier work
[2] = system: stalled translation reaction (myc-dA30 in rabbit reticulocyte lysate); conditions: 130 μM added to stalled translation reaction; 500 mM KCl, 20 mM MgCl2; anti-myc immunoprecipitation
Description: Myc dsDNA was generated by standard methods of PCR to include a 5′-T7 promoter for in vitro synthesis of mRNA using T7 polymerase and a deletion mutant of the tobacco mosaic virus 5′-UTR to induce efficient translation initiation in rabbit reticulocyte lysates. The 3′-end of the myc construct was devoid of stop codons to prevent protein release from the ribosome.
Transcription of the myc PCR product (using the MegaSHORTscript kit, Ambion) gave large quantities of RNA using T7 RNA polymerase. Purified RNA was then subjected to a splinted ligation reaction with a 5′-phosphorylated dA30 oligonucleotide catalyzed by T4 DNA ligase. The 3′-dA30 region facilitates ribosomal stalling and thereby increases the proportion of RNA-ribosome-protein complexes available for labeling. The purified myc-dA30 construct was then translated in rabbit reticulocyte lysate (Ambion) with ^35S-methionine and stalled under high salt conditions (500 mM KCl, 20 mM MgCl2).
Biotin-TEG-dCdCdA was used as a control. The radiolabled myc peptide was then isolated by immunoprecipitation with an anti-myc monoclonal antibody (Chemicon) and protein A sepharose (Sigma). Control and C-terminally-labeled peptide were then applied to a microscope slide prefunctionalized with NeutrAvidin™ (Pierce).

[3] = system: stalled translation reaction (10Fn3-dA30 in rabbit reticulocyte lysate); conditions: labeling as in the myc experiment; Co2+-NTA purification

| Compound | Kd of unmodified puromycin [1] | immobilization of 35S-labeled myc epitope on NeutrAvidin slide (phosphorimaging) [2] | immobilization of radiolabeled 10Fn3 on NeutrAvidin-spotted chip (phosphorimaging) [3] |
| --- | --- | --- | --- |
| COc1ccc(C[C@H](N)C(=O)N[C@H]2[C@@H](O)[C@H](n3cnc4c(N(C)C)ncnc43)O[C@@H]2CO)cc1 [puromycin] | in the micromolar range | – | – |
| Biotin-TEG-dCdCdA | – | no significant label | – |
| Biotin-TEG-dCdC-puromycin | – | biotin-dependent immobilization of myc epitope to the chip surface | presence of radiolabeled ^10Fn3 |
